Measured values as given in patent publication US10251402B2, “Methods and compositions for controlling leaf-cutting ant populations” (ISCA Technologies, Inc., priority 2015, dated 2019).
Where two headings read alike, the source gives them in different places.

How the values were obtained:
[1] = tested on: Leucoagaricus gongylophorus; assay: Fungistatic inhibition: fungal inoculations exposed to wells containing botanical oils, mycelial growth toward the well vs unexposed controls; format: cell-based; conditions: 21 days exposure to well containing oil; mycelial growth toward well vs unexposed control
[2] = tested on: Leucoagaricus gongylophorus; conditions: for Growth Evaluation: 30-day incubation, median of five replicates
Procedure: A similar lab trial was designed and performed to evaluate the fungicidal capacities of these botanical oils in addition to their fungistatic properties against L. gongylophorus. For this test, the plant oils were incorporated directly into the fungal growth medium at different concentrations (0.1, 1, and 5%). The growth of the fungus on this medium was evaluated after a 30-day incubation period, based on the quantity and density of the mycelium, according to the following pattern. Growth was characterized by the following measure: 5+ indicated growth identical to the control treatment (medium alone, with no plant oil treatment), or 100% growth; 4+ indicated growth equivalent to 80% of the control treatment growth; 3+ indicated 60%; 2+ indicated 40%; 1+ indicated 20%; and 0 indicated total elimination of the fungal colony.

## COC(=O)c1ccccc1O [Methyl Salicylate]
[1]
  Inhibition (%) of fungal growth (fungistatic): 100%
[2]
  fungal mortality: 100%
[2]; concentration 0.1% in medium
  Growth Evaluation: 3+ (3+ indicated 60%)
[2]; concentration 1% in medium
  Growth Evaluation: 0
[2]; concentration 5% in medium
  Growth Evaluation: 0
